Results published in BindingDB's records for PubMed 2547939 (Abbott Laboratories, 1989).
pKi: −log10 of the molar value.

Columns and labels:
[1] = target: T1, Muscarinic acetylcholine receptor M2 (Rattus norvegicus, UniProt P10980)
T1 sequence (P10980 whole entry): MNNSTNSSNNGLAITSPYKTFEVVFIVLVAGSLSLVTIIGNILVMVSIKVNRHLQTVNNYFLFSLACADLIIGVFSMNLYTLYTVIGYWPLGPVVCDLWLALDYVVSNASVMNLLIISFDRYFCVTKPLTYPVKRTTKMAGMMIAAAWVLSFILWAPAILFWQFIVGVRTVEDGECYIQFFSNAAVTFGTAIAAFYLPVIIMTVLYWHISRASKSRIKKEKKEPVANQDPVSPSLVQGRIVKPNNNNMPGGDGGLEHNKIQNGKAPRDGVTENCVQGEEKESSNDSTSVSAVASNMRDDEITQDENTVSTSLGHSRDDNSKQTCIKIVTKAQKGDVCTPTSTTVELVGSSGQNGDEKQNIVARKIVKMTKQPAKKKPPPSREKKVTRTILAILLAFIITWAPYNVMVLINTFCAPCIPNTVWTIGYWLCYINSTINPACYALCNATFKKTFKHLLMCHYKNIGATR

[2] = target: T2, Muscarinic acetylcholine receptor M1 (Rattus norvegicus, UniProt P08482)
T2 sequence (P08482 whole entry): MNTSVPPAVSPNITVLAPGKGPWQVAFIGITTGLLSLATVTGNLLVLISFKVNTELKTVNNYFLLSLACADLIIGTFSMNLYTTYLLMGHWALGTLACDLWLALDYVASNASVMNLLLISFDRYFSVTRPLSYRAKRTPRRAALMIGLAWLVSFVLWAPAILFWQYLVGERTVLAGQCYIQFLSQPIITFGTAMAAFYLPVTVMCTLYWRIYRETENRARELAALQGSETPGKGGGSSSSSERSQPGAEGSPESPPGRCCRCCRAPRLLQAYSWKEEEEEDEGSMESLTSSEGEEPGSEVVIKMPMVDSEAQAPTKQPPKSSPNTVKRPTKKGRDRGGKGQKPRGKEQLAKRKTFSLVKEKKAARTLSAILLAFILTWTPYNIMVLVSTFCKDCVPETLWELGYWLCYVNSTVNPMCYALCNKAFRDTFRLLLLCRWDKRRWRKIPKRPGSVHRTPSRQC

pKi [1] | Structure (SMILES) | pKi [2]
7.47 | CCN(CC)CC1CCCCN1CC(=O)N1c2ccccc2C(=O)Nc2cccnc21 (stereo not drawn) [(AF-DX 116) 11-[2-(2-Diethylaminomethyl-piperidin-1-yl)-acetyl]-5,11-dihydro-benzo[e]pyrido[3,2-b][1,4]diazepin-6-one] | 6.74
 | O[Si](CCCN1CCCCC1)(c1ccccc1)C1CCCCC1 (stereo not drawn) [HHSiD] | 7.83
